Measurements from US8716293B2, “Macrocyclic integrase inhibitors” (Janssen R&D Ireland, priority 2010, dated 2014).

Columns and labels:
HIV-1 (IIIB) = assay: cell-based HIV-1 replication assay in MT4-LTR-EGFP cells, wild type; conditions: Human immunodeficiency virus 1, 72 h, 3 days, EGFP fluorescence
Text: (§1) MT4-LTR-enhanced green fluorescent protein (EGFP) cells were obtained by transfecting MT4 cells with a selectable construct encompassing the coding sequences for the HIV LTR as a promoter for the expression of EGFP and subsequent selection of permanently transfected cells. MT4-cytomegalovirus (CMV)-EGFP cells were obtained by selection for permanently transformed MT4 cells with a CMV-EGFP reporter gene. Cell lines were maintained in RPMI 1640 medium supplemented with 10% heat-inactivated fetal calf serum, 2 mM L-glutamine, 0.1% NaHCO3, and antibiotics (0.02% gentamicin and 0.8% G418) and incubated in a humidified incubator with a 5% CO2 atmosphere at 37° C.
The inhibitory antiviral activity of different compounds was determined in a cell-based HIV-1 replication assay. MT4-LTR-EGFP cells (150,000 cells/ml) were infected with HIV-1 (IIIB or SDM strains Q148R, N155H, or G140S-Q148H; multiplicity of infection [MOI] of 0.0025) in the presence or absence of inhibitor. After 3 days of incubation, the inhibition of HIV replication was quantified by measuring EGFP fluorescence, and expressed as the compound concentration required for 50% inhibition of HIV-1 replication in cell culture (EC50). The antiviral activities of the different compounds are reported in Table 4 and expressed as EC50 for the inhibition of wild type HIV (IIIB EC50) and as fold change in activity against the mutant strains (FC-Q148R, FC-N155H, FC-G140S-Q148H) compared to the activity against wild type HIV.

HIV-1 SDM strain Q148R = assay: cell-based HIV-1 replication assay in MT4-LTR-EGFP cells, Q148R mutant; conditions: fold change in activity against Q148R mutant compared to wild type HIV
Text: as §1
(§2) N155H and Q148R mutant Integrase coding sequences were constructed in the pUC19-5′HXB2D vector (XbaI-SalI fragment of pHXB2D), containing the HIV-1 clone HXB2D IN coding sequence, by using a QuikChange site-directed mutagenesis kit (Stratagene, La Jolla, Calif.) and HPLC-purified primers (Genset Oligos, La Jolla, Calif.). Altered plasmid sequences were confirmed by dideoxyribose sequencing. For generation of site-directed mutant (SDM) virus stocks, MT4 cells were subcultured at a density of 250,000 cells/ml on the day before transfection. Cells were pelleted and resuspended in phosphate-buffered saline at a concentration of 3.1×10^6 cells/ml. A 0.8-ml portion ([…]) was used for each transfection. Transfections were performed with a Bio-Rad Gene Pulser (Bio-Rad, Hercules, Calif.) with 0.4-cm electrode cuvettes (Bio-Rad). Cells were electroporated with 10 μg of SalI-linearized pUC19-3′HXB2D (SalI-XbaI fragment of pHXB2D) and 5 μg of SalI-digested SDM at 250 μF and 300 V, followed by a 30-min incubation at room temperature. Ten ml of fresh culture medium was then added to the suspension of transfected cells, and incubation was performed at 37° C. in a humidified atmosphere with 5% CO2. Cell cultures were monitored for the appearance of cytopathic effect (CPE).
(§3) The inhibitory antiviral activity of different compounds was determined in a cell-based HIV-1 replication assay. MT4-LTR-EGFP cells (150,000 cells/ml) were infected with HIV-1 (IIIB or SDM strains Q148R, N155H, or G140S-Q148H; multiplicity of infection [MOI] of 0.0025) in the presence or absence of inhibitor. After 3 days of incubation, the inhibition of HIV replication was quantified by measuring EGFP fluorescence, and expressed as the compound concentration required for 50% inhibition of HIV-1 replication in cell culture (EC50).

HIV-1 SDM strain N155H = assay: cell-based HIV-1 replication assay in MT4-LTR-EGFP cells, N155H mutant; conditions: fold change in activity against N155H mutant compared to wild type HIV
Text: as §1, §2, §3

[1] = system: HIV-1 SDM strain G140S-Q148H; assay: cell-based HIV-1 replication assay in MT4-LTR-EGFP cells, G140S-Q148H mutant; conditions: fold change in activity against G140S-Q148H mutant compared to wild type HIV
Text: as §1, §2, §3

HIV-1 LAI (IIIB) = assay: antiviral assay in the presence of 50% human serum; format: cell-based; conditions: MT-4-LTR-EGFP cells, 4 days, resazurin cell viability
Experimental: For the antiviral assay in the presence of 50% human serum, MT-4-LTR-EGFP cells were infected with HIV-1 LAI (IIIB) at a MOI of 0.001 to 0.01 CCID50/cell in RPMI1640 medium. Following 1 h of incubation, cells were washed and plated into a 96-well plate containing serial dilutions of test compound in the presence of 10% fetal calf serum or 50% human serum. After 4 days of incubation, the EC50 in the presence of 50% human serum (EC50/HS) was determined by a cell viability assay using resazurin (as described by Fields, R. D., and M. V. Lancaster (1993) Am. Biotechnol. Lab. 11:48-50).

[2] = pharmacokinetic evaluation in the rat; format: in vivo, male Sprague-Dawley rats; conditions: intravenous bolus 2 mg/kg; for clearance / half-life / Vd: male, Sprague-Dawley, plasma, iv; for clearance / CLp: plasma clearance; for clearance: read-out: CLp; for half-life / t1/2: terminal phase elimination half-life; for Vd: read-out: Vss
Experimental: For determining the pharmacokinetic properties in rat, each HIV integrase inhibitor was dissolved in PEG400/normal saline (70:30 (v/v)) at a nominal concentration of 1 mg/ml and administered (2 ml/kg) to male Sprague-Dawley rats (n=3 per test compound) as an intravenous bolus via a saphenous vein at a dose level of 2 mg/kg. […] Plasma was obtained by centrifugation and stored at −20° C. prior to analysis. Analysis was performed using liquid chromatography (LC) with tandem mass spectrometric detection (MS/MS) in positive ion mode. Each HIV integrase inhibitor was eluted from a reversed-phase column with a gradient of acetonitrile and water containing 0.1% (v/v) formic acid. At the time of analysis plasma samples (50 p. 1) were thawed and […] with 200 μl of acetonitrile containing 0.1% (v/v) formic acid and centrifuged. Aliquots of the supernatant (100 μl) were diluted with 200 μl of water containing 25% (v/v) methanol and 0.1% (v/v) formic acid and injected via an electrospray interface directly into the Mass Spectrometer. Calibration standards and quality controls were prepared in rat plasma at the same time as the samples and analyzed before and after the samples containing HIV integrase inhibitor. Non-compartmental pharmacokinetic analysis of the plasma concentration-time curves was performed using WinNonLin software to provide estimates of the plasma clearance (CLp), volume of distribution at steady-state (Vss) and terminal phase elimination half-life (t1/2).

[3] = system: cryopreserved hepatocytes from Sprague Dawley rats; assay: metabolic stability in rat hepatocytes; format: in vitro ADME; conditions: 1 μM, percentage turnover; for Rat (% TO) 15 min: 15 min incubation; for Rat (% TO) 60 min: 60 min incubation
Experimental: (§4) For determining in vitro metabolic stability, cryopreserved hepatocytes from Sprague Dawley rats and of human subjects (pool of male and female) were obtained from an external supplier (Cellz Direct Inc., Paisly, UK). Tested compounds were dissolved in DMSO and this stock solution was used to spike rat and human hepatocyte cell cultures (10^6 cells/ml) at a final concentration of 1 μM (final percentage of DMSO was 0.02% (v/v)). Incubations were performed for up to 60 min at approximately 37° C. and terminated by the addition of two volumes of DMSO. Samples were then centrifuged and aliquots of the supernatant analyzed using liquid chromatography (LC) with electrospray mass spectrometric detection (MS/MS) to monitor the disappearance of parent compound by single reaction monitoring (SRM) and reverse-phase chromotatography with a gradient of acetonitrile and water containing 0.1% (v/v) formic acid. Based on peak area, the percentage of parent compound remaining after 15 and 60 min incubation was calculated and the results, expressed as percentage turnover (TO) relative to time zero controls.

[4] = system: cryopreserved hepatocytes of human subjects; assay: metabolic stability in human hepatocytes; format: in vitro ADME; conditions: 1 μM, percentage turnover; for Human (% TO) 15 min: 15 min incubation; for Human (% TO) 60 min: 60 min incubation
Experimental: as §4

[5] = Human immunodeficiency virus 1, IIIB, 96 h
[6] = 2 mg/kg, volume of distribution at steady-state

Structure (SMILES) | EC50 (HIV-1 (IIIB)) [nM] | FC-Q148R (HIV-1 SDM strain Q148R) | FC-N155H (HIV-1 SDM strain N155H) | FC-G140S-Q148H [1] | EC50 (HIV-1 LAI (IIIB); [5]) [nM] | clearance ([2]; 2 mg/kg) [mL/min/kg] | half-life ([2]; 2 mg/kg) [h] | Vd [2, 6] [L/kg] | Rat (% TO) 15 min [3] [% TO] | Rat (% TO) 60 min [3] [% TO] | Human (% TO) 15 min [4] [% TO] | Human (% TO) 60 min [4] [% TO] | melting point [°C] | CLp ([2]; 2 mg/kg) [mL/min/kg] | t1/2 ([2]; 2 mg/kg) [h] | EC50 (HIV-1 LAI (IIIB)) [nM] | CLp [2] [mL/min/kg] | t1/2 [2] [h] | Vss ([2]; volume of distribution at steady-state) [L/kg]
CCN1C[C@H](C)n2c(c(O)c3c(=O)n4nc(c32)N(C)S(=O)(=O)CCCCOc2cc(F)ccc2C4)C1=O [Compound 1] | 0.92 | 0.7 | 3.2 | 2.6 | 3 | 8 | 4.8 | 0.8 | 30 | 42 | 16 | 31 | 298.6 to 300.6 |  |  |  |  |  | 
CCN1C[C@H](C)n2c(c(O)c3c(=O)n4nc(c32)C(=O)NCCCCCOc2cc(F)ccc2C4)C1=O [Compound 3] | 2.35 | 0.9 | 3.9 | 8.1 | 13 | 6 | 4.4 |  |  |  |  |  | 128.21 | 8 | 7.8 |  |  |  | 
CCN1C[C@H](C)n2c(c(O)c3c(=O)n4nc(c32)C(=O)NCCCCCOc2cc(F)c(F)cc2C4)C1=O [Compound 4] | 2.61 | 1.2 | 6.1 | 10.9 | 10 |  |  |  |  |  |  |  | 127.49 to 128.63 |  |  |  |  |  | 
CCN1C[C@H](C)n2c(c(O)c3c(=O)n4nc(c32)N(C)S(=O)(=O)CCCCOCc2cc(F)ccc2C4)C1=O [Compound 48] |  | 0.5 | 4.7 | 1.3 |  |  |  |  | 65 | 86 | 38 | 72 |  |  |  | 4 | 20 | 1.4 | 0.7
CCN1C[C@H](C)n2c(c(O)c3c(=O)n(Cc4ccc(F)c(Cl)c4)nc(C(=O)NC)c32)C1=O [Compound 52r, reference compound] | 3.4 | 1.2 | 6.8 | 56.9 | 29 | 5 | 1.6 | 0.2 | 38 | 76 | 25 | 44 |  |  |  |  |  |  | 
CCN1C[C@H](C)n2c(c(O)c3c(=O)n(Cc4ccc(F)cc4)nc(N(C)S(C)(=O)=O)c32)C1=O [Compound 53r, reference compound] | 0.99 | 0.4 | 4.9 | 2.0 | 3 | 75 | 1.7 | 2.9 | 60 | 89 | 41 | 84 |  |  |  |  |  |  | 
CCN1C[C@@H](C)n2c(c(O)c3c(=O)n(Cc4ccc(F)c(Cl)c4)nc(N4CCN(C)S4(=O)=O)c32)C1=O [Compound 54r, reference compound] | 2.04 | 0.4 | 4.4 | 3.1 | 7 | 40 | 1.5 | 2.2 | 32 | 46 | 16 | 23 |  |  |  |  |  |  | 
